Measured values as given in US20200352931A1, “OXALAMIDES AS MODULATORS OF INDOLEAMINE 2,3-DIOXYGENASE” (PHENEX DISCOVERY VERWALTUNGS-GMBH, priority 2017, published 2020).

Each molecule was assayed against T1, Indoleamine 2,3-Dioxygenase (IDO1) in SKOV-3 cells (Homo sapiens, UniProt P14902) (assay: SKOV-3 cellular indoleamine 2,3-dioxygenase assay). Conditions: 50 ng/ml Interferon gamma, 100 μM L-Tryptophan, 24 hours, N-Formylkynurenin fluorescence, read-out: cell based activity (IC50).
T1 construct: endogenous in cells; host or cells: SKOV-3 (ATCC HTB-77), stimulated with 50 ng/ml interferon gamma
T1 sequence (P14902 whole entry): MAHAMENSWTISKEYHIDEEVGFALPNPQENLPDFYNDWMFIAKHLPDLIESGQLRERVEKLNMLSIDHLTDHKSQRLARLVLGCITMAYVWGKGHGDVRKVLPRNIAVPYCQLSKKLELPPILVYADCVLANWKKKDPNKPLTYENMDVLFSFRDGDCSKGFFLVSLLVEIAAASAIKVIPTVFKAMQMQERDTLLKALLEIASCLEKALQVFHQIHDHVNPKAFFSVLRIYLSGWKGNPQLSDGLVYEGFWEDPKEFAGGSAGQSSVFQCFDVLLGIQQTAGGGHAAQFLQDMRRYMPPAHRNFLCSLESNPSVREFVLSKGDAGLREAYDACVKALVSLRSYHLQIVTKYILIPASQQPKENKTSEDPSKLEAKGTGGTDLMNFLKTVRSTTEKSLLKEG
Procedure: SKOV-3 Cellular Indoleamine 2,3-Dioxygenase Assay
SKOV-3 cells were obtained from the American Type Culture Collection (ATCC® HTB-77™) and maintained in McCoy's medium (Pan Biotech) supplemented with 10% fetal bovine serum and 1% Penicilin/Streptomycin. Cells were kept at 37° C. in a humidified incubator with 5% CO2. For assay preparation, cells were seeded at a density of 2*10^5/m into black clear bottom 96 well plates in 100 μl medium/well supplemented with 50 ng/ml Interferon gamma (eBioscience, Thermo Fisher Scientific). After cells fully adhered to the plate, dilution series of compounds were added in medium containing additional L-Tryptophan to a final L-Tryptophan concentration of 100 μM. The cells were incubated for 24 hours. Detection of produced N-Formylkynurenin was performed by addition of 3-Methylpiperidine to a final concentration of 200 mM. The plates were sealed and heated to 65° C. for 20 minutes in a water bath. After cooling the fluorescence of each well was recorded with a Victor™ X4 (PerkinElmer) plate reader at an emission wavelength of 535 nm and excitation at 405 nm (Tomek et al.; Anal Bioanal Chem (2013) 405:2515-2524., Tomek et al.; Biochim Biophys Acta. 2015 September; 1850(9):1772-80).
An IC50 of over 1 µM was found for O=C(NC1CCC(F)(F)CC1)C(=O)N1CCC(c2ccnc3ccc(F)cc23)CC1 [8/3] in this work.
An IC50 of over 1 µM was found for O=C(NCC1CC1)C(=O)N1CCC(c2ccnc3ccc(F)cc23)CC1 [8/4] in this work.
An IC50 of over 1 µM was found for O=C(NC1CCC2(CC1)CC2)C(=O)N1CCC(c2ccnc3ccc(F)cc23)CC1 [8/5] in this work.
An IC50 of over 1 µM was found for O=C(NC1CCC(C(F)(F)F)CC1)C(=O)N1CCC(c2ccnc3ccc(F)cc23)CC1 (centres unmarked) [8/6] in this work.
An IC50 of 0.1 to 1 µM was found for O=C(Nc1ccc(Cl)cn1)C(=O)N1CCC2(CC1)OCc1ccccc12 [100/1] in this work.
An IC50 of 0.1 to 1 µM was found for O=C(Nc1ccc(Cl)cn1)C(=O)N1CCC2(CC1)COc1ccccc12 [100/2] in this work.
An IC50 of over 1 µM was found for CN1C(=O)C2(CCN(C(=O)C(=O)Nc3ccc(Cl)cn3)CC2)c2ccccc21 [100/4] in this work.
An IC50 of over 1 µM was found for O=C(Nc1ccc(Cl)cn1)C(=O)N1CCC2(CC1)OCc1ccncc12 [100/5] in this work.
An IC50 of over 1 µM was found for O=C(Nc1ccc(Cl)cn1)C(=O)N1CCC2(CC1)NC(=O)c1ccccc12 [100/6] in this work.
An IC50 of over 1 µM was found for CN1C(=O)c2ccccc2C12CCN(C(=O)C(=O)Nc1ccc(Cl)cn1)CC2 [100/7] in this work.
An IC50 of 0.1 to 1 µM was found for O=C(Nc1ccc(Cl)cn1)C(=O)N1CCC2(CC1)OCc1cc(Cl)ccc12 [100/8] in this work.
An IC50 of under 0.1 µM was found for O=C(Nc1ccc(Cl)cc1)C(=O)N1CCC2(CC1)OCc1cc(Cl)ccc12 [100/9] in this work.
An IC50 of under 0.1 µM was found for O=C(Nc1ccc(Cl)cn1)C(=O)N1CCC2(CC1)OCc1cc(C(F)(F)F)ccc12 [100/11] in this work.
An IC50 of under 0.1 µM was found for O=C(Nc1ccc(Cl)cc1)C(=O)N1CCC2(CC1)OCc1cc(C(F)(F)F)ccc12 [100/12] in this work.
An IC50 of under 0.1 µM was found for O=C(Nc1ccc(Cl)cc1)C(=O)N1CCC2(CC1)OCc1cc(C(F)(F)F)c(F)cc12 [100/13] in this work.
An IC50 of 0.1 to 1 µM was found for N#Cc1ccc2c(c1)COC21CCN(C(=O)C(=O)Nc2ccc(Cl)cc2)CC1 [100/14] in this work.
An IC50 of over 1 µM was found for O=C(Nc1ccc(Cl)cn1)C(=O)N1CCC2(CC1)OCc1ccc(Cl)cc12 [100/15] in this work.
An IC50 of under 0.1 µM was found for O=C(Nc1ccc(Cl)cn1)C(=O)N1CCC(c2ccnc3ccc(F)cc23)CC1 [Example 2, N-(5-Chloropyridin-2-yl)-2-(4-(6-fluoroquinolin-4-yl)piperidin-1-yl)-2-oxoacetamide] in this work.
An IC50 of under 0.1 µM was found for O=C(Nc1ccc(Cl)cn1)C(=O)N1CCC(c2ccnc3ccccc23)CC1 [Example 3, N-(5-Chloropyridin-2-yl)-2-oxo-2-(4-(quinolin-4-yl)piperidin-1-yl)acetamide] in this work.
An IC50 of 0.1 to 1 µM was found for C[C@H]1CC[C@H](NC(=O)C(=O)N2CCC(c3ccnc4ccccc34)CC2)CC1 [Example 4, N-((1r,4r)-4-Methylcyclohexyl)-2-oxo-2-(4-(quinolin-4-yl)piperidin-1-yl)acetamide] in this work.
An IC50 of 0.1 to 1 µM was found for O=C(N[C@H]1CCc2ccccc2C1)C(=O)N1CCC(c2ccnc3ccc(F)cc23)CC1 [Example 5, (S)-2-(4-(6-Fluoroquinolin-4-yl)piperidin-1-yl)-2-oxo-N-(1,2,3,4-tetrahydro-naphthalen-2-yl)acetamide] in this work.
An IC50 of 0.1 to 1 µM was found for O=C(Nc1ccc(Cl)cn1)C(=O)N1CCC(c2cccc3ccccc23)CC1 [Example 6, N-(5-Chloropyridin-2-yl)-2-(4-(naphthalen-1-yl)piperidin-1-yl)-2-oxoacetamide] in this work.
An IC50 of under 0.1 µM was found for O=C(Nc1ccc(CCCl)cc1)C(=O)N1CCC(c2ccnc3ccc(F)cc23)CC1 [Example 7, N-(4-(2-Chloroethyl)phenyl)-2-(4-(6-fluoroquinolin-4-yl)piperidin-1-yl)-2-oxoacetamide] in this work.
An IC50 of over 1 µM was found for CC(NC(=O)C(=O)N1CCC(c2ccnc3ccc(F)cc23)CC1)c1ccccc1 (centres unmarked) [Example 8, 2-(4-(6-Fluoroquinolin-4-yl)piperidin-1-yl)-2-oxo-N-(1-phenylethyl)acetamide] in this work.
An IC50 of over 1 µM was found for O=C(Nc1ccc(Cl)cn1)C(=O)N1CCC(c2ccc(C(=O)O)c3ccccc23)CC1 [Example 9, 4-(1-(2-((5-Chloropyridin-2-yl)amino)-2-oxoacetyl)piperidin-4-yl)-1-naphthoic Acid] in this work.
An IC50 of under 0.1 µM was found for O=C(Nc1ccc(Cl)cn1)C(=O)N1CCC2(CCc3ccccc32)CC1 [Example 100] in this work.
